US20240130367A1, “PLANT GROWTH PROMOTERS” (University of Durham, priority 2020, published 2024)
Counter-ions that a name gives are not always drawn.

Experiments:
[1] = system: Arabidopsis thaliana wild-type; experiment: Root growth assay, seedlings on agar plates containing chemical; type: in vivo; conditions: 100 μM; for Root growth activity relative to A1: 7-day old seedlings, 5 days
Experimental: Arabidopsis thaliana wild-type seeds were from laboratory stocks of Columbia (Col-0) and Landsberg erecta (Ler-0) accessions. […] Seeds were plated out 1×MS medium pH 5.8 (T. Murashige and F. Skoog (1962) Physiologia Plantarum 15: 473-497) in petri dishes with a concentration of either 0.8% or 1.2% (w/v) phytoagar for root and hypocotyl measurements, respectively. After sowing seeds were stratified on plates at 4° C. for a minimum of 48 h to achieve synchronous germination. Seedlings were grown for either 7 or 2 days for root and hypocotyl measurements, respectively, prior to treatment with chemicals. […] Seedling were grown in a Percival (CU-36L5D, CLF plant climatics, Emersacker, Germany) with a photoperiod of 16/8 h with a light intensity of either 150 μmol m^2 s^−1 or 50 μmol m^2 s^−1 for root and hypocotyl measurements, respectively, and a temperature of 20±1° C.
The effect of the A1 analogues on root and hypocotyl growth was investigated. In order to allow a direct comparison with eW5, the concentration used in these assays was 100 μM. The root growth assay was performed by treating the 7-day old seedlings on chemical plates for 5 days.

[2] = system: Arabidopsis thaliana wild-type; experiment: Hypocotyl growth assay under reduced light; type: in vivo; conditions: 100 μM; for Hypocotyl growth promotion relative to A1 / Effect on hypocotyl growth in wild type: reduced light; for Effect on hypocotyl growth in wild type / New Length / New length (cm): three days; for New Length / Relative growth (cm) / New length (cm): hypocotyl; for New Length: in cm; for New length (cm): trials 1, 2, 3 and SAM each with own DMSO control
Text: (§1) Arabidopsis thaliana wild-type seeds were from laboratory stocks of Columbia (Col-0) and Landsberg erecta (Ler-0) accessions. Arabidopsis thaliana is a dicot. The mutants of gid1 (J. Griffiths, et al., Plant Cell, 2006, 18, 3399-3414) were obtained from Dr. Steve Thomas (Rothamsted Research, UK) and were in a Col-0 background, whilst the della quintuple mutant (S. H. Feng et al. Nature, 2008, 451: 475-479) and ga1-5 (I. Fridborg et al. Plant Cell, 1999, 11: 1019-1031) were in a Ler-0 background and was obtained from the Nottingham Arabidopsis Stock Centre (NASC). The A. thaliana line expressing RGA-GFP (A. L. Silverstone et al. The Plant Cell, 2001, 13: 1555-1565), Col-0 background was obtained from Prof. Keith Lindsey (Durham University, UK). Seeds were plated out 1×MS medium pH 5.8 (T. Murashige and F. Skoog (1962) Physiologia Plantarum 15: 473-497) in petri dishes with a concentration of either 0.8% or 1.2% (w/v) phytoagar for root and hypocotyl measurements, respectively. After sowing seeds were stratified on plates at 4° C. for a minimum of 48 h to achieve synchronous germination. Seedlings were grown for either 7 or 2 days for root and hypocotyl measurements, respectively, prior to treatment with chemicals. For hypocotyl measurements, seeds were sown on nylon mesh (acid resistant monofilament nylon filter mesh fabric; GZ, model number H20M). Seedling were grown in a Percival (CU-36L5D, CLF plant climatics, Emersacker, Germany) with a photoperiod of 16/8 h with a light intensity of either 150 μmol m^2 s^−1 or 50 μmol m^2 s^−1 for root and hypocotyl measurements, respectively, and a temperature of 20±1° C.
After growing as described above seedlings for root assays were transferred to 1.2% (w/v) agar plates containing each chemical at a final concentration of 100 μM (the addition of the chemicals was performed when media had cooled to 50° C. after autoclaving), with an equivalent concentration of DMSO as control. At this stage the positions of the root tips were marked on the petri dish. The plants were subsequently grown vertically and after a further 5 days images of the plates were scanned and the root growth that occurred during the 5 days on chemicals was measured using ImageJ software. 18 seedlings were measured for each treatment. For hypocotyl measurements the assay performed was adapted from de Lucas et al. (2008, supra). After growing seedlings as described above, the nylon mesh was transferred across to the plates containing chemical. The plants were then placed in vertical orientation for three days under reduced light intensity (by covering plates with 2 layers of 80 g·m^2 white paper) before the plates were scanned. The measurement of hypocotyl was done using ImageJ software. At least 15 seedlings were measured for each plate.
To determine the mechanism of A1 action via the GA/DELLA signaling pathway, the response of A1 in a series of GA synthesis/signalling mutants was investigated. For these assays the focus was on hypocotyl growth, because it is well established that DELLA can inhibit the binding of PIFs to their target promoter leading to a reduction in GA-regulated hypocotyl growth (A. Castillon, H. Shen and E. Huq (2007) Trends in Plant Science, 12: 514-521.; de Lucas et al. 2008, supra; S. H. Feng et al. 2008, supra. To establish the use of A1 in this assay, hypocotyl growth was first tested by growing the seedlings on agar plates containing A1, with GA and PAC used as positive and negative controls, respectively, for three days in reduced light conditions to achieve a balance between maximum and minimum hypocotyl growth. […] Having established the hypocotyl assay, DELLA-dependence of the A1 effect was then confirmed genetically. To test this, a mutant line that lacks all DELLA (GAI, RGA, RGL1, RGL2 and RGL3) function was used.
The effect of additional compounds on hypocotyl growth was investigated using the same methods as described above (100 μM of each compound was used). […]

Arabidopsis thaliana = experiment: Fresh and dry weight measurements of treated seedlings; type: in vivo; conditions: 5 days chemical treatment
Experimental: Leaves and roots fresh weights of 12 days old seedlings, that were subjected to 5 days chemical treatment as described above, were measured. Dry weights were recorded after placing the plant material in oven at 65° C. for 3 days. The measurements were performed on 15 seedlings for each treatment.
Having discovered the root growth-promoting properties of A1, we wished to establish if the effects were limited to the roots, or whether A1 could also promote growth of shoot tissue. We were also interested to see if the effect was on fresh weight, dry weight or both. To investigate this, plants were treated with A1, divided into shoot and root material and the fresh and dry weight recorded.

RGA-GFP = experiment: DELLA degradation: confocal imaging of RGA-GFP fluorescence in roots; type: in vivo, Arabidopsis thaliana; conditions: 100 μM; for GFP fluorescence / stability of DELLA protein in roots: A1 imaged after 2 and 24 hours, PAC applied 48 hours before
Text: as §1
Confocal microscopy was performed using a Leica SP5 CLSM FLIM FCCS (Leica Microsystems, Wetzlar, Germany). GFP:RGA seeds were germinated and grown on 1.2% MS vertically for 7 days, and then incubated in chemical solution (at the final concentration of 100 μM) for 2 and 24 hours before being analyzed. […] The excitation wavelength of the argon laser was 488 nm and the emission was detected using a bypass filter of 495-550 nm. […]

della quintuple mutant = experiment: Hypocotyl growth assay in della quintuple mutant; type: in vivo, Arabidopsis thaliana
Text: (§2) Arabidopsis thaliana wild-type seeds were from laboratory stocks of Columbia (Col-0) and Landsberg erecta (Ler-0) accessions. Arabidopsis thaliana is a dicot. The mutants of gid1 (J. Griffiths, et al., Plant Cell, 2006, 18, 3399-3414) were obtained from Dr. Steve Thomas (Rothamsted Research, UK) and were in a Col-0 background, whilst the della quintuple mutant (S. H. Feng et al. Nature, 2008, 451: 475-479) and ga1-5 (I. Fridborg et al. Plant Cell, 1999, 11: 1019-1031) were in a Ler-0 background and was obtained from the Nottingham Arabidopsis Stock Centre (NASC). The A. thaliana line expressing RGA-GFP (A. L. Silverstone et al. The Plant Cell, 2001, 13: 1555-1565), Col-0 background was obtained from Prof. Keith Lindsey (Durham University, UK). […]
(§3) After growing as described above seedlings for root assays were transferred to 1.2% (w/v) agar plates containing each chemical at a final concentration of 100 μM (the addition of the chemicals was performed when media had cooled to 50° C. after autoclaving), with an equivalent concentration of DMSO as control. […] The plants were subsequently grown vertically and after a further 5 days images of the plates were scanned and the root growth that occurred during the 5 days on chemicals was measured using ImageJ software. 18 seedlings were measured for each treatment. […] At least 15 seedlings were measured for each plate. […]

ga1-5 mutant = experiment: Hypocotyl growth assay in GA biosynthesis mutant ga1-5; type: in vivo, Arabidopsis thaliana; conditions: 100 μM, three days
Text: as §2, §3

gid1 double mutants = experiment: Hypocotyl growth assay in GA receptor gid1 double mutants; type: in vivo, Arabidopsis thaliana
Text: as §2, §3

maize = experiment: Growth of a monocot on application of A1; type: in vivo
plant = conditions: known calmodulin inhibitors; cited from earlier work
[3] = relative to the DMSO control of the same trial

SMILES: CN(CCN)S(=O)(=O)c1cccc2ccccc12.Cl [Compound E5, N-methyl-N-naphthylsulfonyl-1,2-ethanediamine Hydrochloric Acid Salt]
- Root growth activity relative to A1 [1]: biggest effect
- Hypocotyl growth promotion relative to A1 [2]: biggest effect

SMILES: Cl.NCCNS(=O)(=O)Cc1ccccc1 [Compound E3, Alpha-toluenesulfonylethylene Diamine Hydrochloric Acid Salt]
- Root growth activity relative to A1 [1]: higher activity than A1
- Hypocotyl growth promotion relative to A1 [2]: less hypocotyl growth promotion relative to A1

SMILES: Cl.NCCNS(=O)(=O)c1cccc2ccccc12 [eW5, 2′-Amino-1′-(1-naphthylsulfonylamino)Ethane Hydrochloric Acid Salt]
- Effect on root growth compared to DMSO control ([1]; 5 days on chemical): promoted root growth
- Effect on hypocotyl growth in wild type [2]: increased the hypocotyl length
- Effect on hypocotyl growth in wild type ([2]; listed as A1): stimulated hypocotyl growth in a manner very similar to GA
- New Length [2]: 0.9253
- Relative growth (cm) ([2]; relative to DMSO control): 0.3497
- Fresh weight of roots and shoots (Arabidopsis thaliana; 12 days old seedlings): increased
- Dry:fresh weight ratio in roots and shoots (Arabidopsis thaliana; dried at 65° C. for 3 days): increased
- Time after which the DELLA degradation response could be observed (RGA-GFP): 2 h
- GFP fluorescence / stability of DELLA protein in roots (RGA-GFP): reduced GFP fluorescence
- Effect on hypocotyl growth in mutant lacking all DELLA function (della quintuple mutant): no promotion of hypocotyl growth was observed
- Recovery of hypocotyl elongation in ga1-5 (ga1-5 mutant): could not recover hypocotyl elongation
- Effect on hypocotyl length in gid1 double mutants compared with wild type (gid1 double mutants): the effect was reduced in the mutants
- Root, stem and leaf growth in maize (maize): Improved root, stem (hypocotyl in particular) and leaf growth

SMILES: NCCCCCCNS(=O)(=O)c1cccc2ccccc12 [Compound W5, N-(6-Aminohexyl)-1-naphthalenesulfonamide]
- Effect on plant growth (plant): inhibit plant growth

SMILES: NCCNS(=O)(=O)c1cccc2c(Cl)cccc12 [JAR482, N-(2′-aminoethyl)-5-chloronaphthalene-1-sulfonamide Hydrochloride]
- New Length [2]: 0.5888

SMILES: Cc1ccc(CS(=O)(=O)NCCN)cc1.Cl [Compound E4, Alpha-p-xylenesulfonylethylene Diamine Hydrochloric Acid Salt]
- Root growth activity relative to A1 [1]: higher activity than A1
- Hypocotyl growth promotion relative to A1 [2]: less hypocotyl growth promotion relative to A1

SMILES: CC(C)(C)[C@@H](O)[C@@H](Cc1ccc(Cl)cc1)n1cncn1 (racemic) [PAC, paclobutrazol, reference compound]
- GFP fluorescence / stability of DELLA protein in roots (RGA-GFP): stabilized the DELLA protein

SMILES: NCCCCCCNS(=O)(=O)c1cccc2c(Cl)cccc12 [Compound W7, N-(6-Aminohexyl)-5-chloro-1-naphthalenesulfonamide]
- Effect on plant growth (plant): inhibit plant growth

SMILES: CCCCCOc1ccc(S(=O)(=O)NCCN)c2ccccc12.Cl [JAR70, N-(2′-aminoethyl)-4-pentoxynaphthalene-1-sulfonamide Hydrogen Chloride]
- New length (cm) [2]: 0.173 cm
- Relative growth (cm) [2, 3]: −0.2822

SMILES: CCCCCCOc1ccccc1S(=O)(=O)NCCN.Cl [JAR73, N-(2′-aminoethyl)-2-hexoxybenzene-1-sulfonamide Hydrogen Chloride]
- New length (cm) [2]: 0.202 cm
- Relative growth (cm) [2, 3]: −0.1618
